Publication PMC6095690, “Coalescing beneficial host and deleterious antiparasitic actions as an antischistosomal strategy” (eLife, 2018)

Experiments:
Sm.5HTRL [1] = target: T1, Sm.5HTRL (Schistosoma mansoni, UniProt A0A173FEI8)
[2] = tested on: forskolin evoked cAMP production in HEK293 cells lacking Sm.5HTRL; test: counter-screen of antagonist hits: forskolin evoked cAMP production in parental reporter line; format: cell-based
human 5-HT2B receptor = tested on: human 5-HT2B receptor; design: method as in Chan et al., 2017; conditions: contracts host mesenteric vessels; ref Chan et al., 2017; cited from earlier work
[3] = tested on: liver of S. mansoni infected mice; test: liver histology and immunohistochemistry of infected drug treated mice; conditions: ergotamine 60 mg/kg
liver signaling pathways = test: Ingenuity Pathway Analysis of transcripts differentially expressed in drug treated livers relative to control infections; format: in vivo, mouse
Sm.5HTRL [4] = target: T1, Sm.5HTRL; test: cell-based; conditions: HEK293
[5] = tested on: immature S. mansoni (infection in mice); test: curative efficacy against immature infection in mice (dosing weeks 3-4 post infection); conditions: dosing 3–4 weeks post infection, worm burden at 7 weeks; ERG 60 mg/kg, PZQ 50 mg/kg
immature S. mansoni = test: movement of immature worms harvested 4 weeks post infection, ex vivo; design: species or system Schistosoma mansoni; conditions: male worms 4 weeks post infection
Text: Figure 6. […] Figure 6—figure supplement 1. […] Scale = 50 µm. [drawing 7]

[6] = tested on: adult S. mansoni parasites; test: adult worm movement assay ex vivo; design: species or system Schistosoma mansoni; conditions: Schistosoma mansoni; ex vivo, ± 95% confidence interval; read-out: EC50 for stimulation of adult schistosome movement
[7] = tested on: adult S. mansoni male and female pairs; test: egg laying assay of worm pairs cultured ex vivo; conditions: 1 µM
Sj.5HTR = Sj.5HTR (Schistosoma japonicum, UniProt A0A346LTY2); test: cell-based; conditions: HEK293
[8] = tested on: S. mansoni (mature infection in Swiss Webster mice); test: hepatic shift assay in infected mice; conditions: intraperitoneal, sacrificed three hours later; dose not given
Sh.5HTR = Sh.5HTR (Schistosoma haematobium, UniProt A0A922S615); format: cell-based; conditions: HEK293; maximal cAMP response relative to 5-HT
[9] = tested on: S. mansoni (mature infection in Swiss Webster mice); test: curative efficacy against mature infection in mice (survival, worm burden, egg counts, organ weights)

T1 sequence (A0A173FEI8 1-547): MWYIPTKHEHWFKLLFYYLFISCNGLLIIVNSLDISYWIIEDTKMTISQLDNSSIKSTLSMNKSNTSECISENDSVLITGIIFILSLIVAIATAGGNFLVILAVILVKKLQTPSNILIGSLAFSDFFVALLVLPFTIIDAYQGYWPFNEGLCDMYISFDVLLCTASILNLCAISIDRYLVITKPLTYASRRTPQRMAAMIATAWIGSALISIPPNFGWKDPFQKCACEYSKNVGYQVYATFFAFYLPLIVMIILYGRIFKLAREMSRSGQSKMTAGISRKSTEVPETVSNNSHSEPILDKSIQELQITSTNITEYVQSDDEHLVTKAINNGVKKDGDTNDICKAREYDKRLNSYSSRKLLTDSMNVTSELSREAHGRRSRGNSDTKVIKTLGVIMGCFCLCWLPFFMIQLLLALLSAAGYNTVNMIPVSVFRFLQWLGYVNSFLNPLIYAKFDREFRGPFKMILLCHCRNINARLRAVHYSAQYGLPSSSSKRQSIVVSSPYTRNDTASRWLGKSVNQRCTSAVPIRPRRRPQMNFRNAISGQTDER
Sj.5HTR, sequence (A0A346LTY2 entry or part of it): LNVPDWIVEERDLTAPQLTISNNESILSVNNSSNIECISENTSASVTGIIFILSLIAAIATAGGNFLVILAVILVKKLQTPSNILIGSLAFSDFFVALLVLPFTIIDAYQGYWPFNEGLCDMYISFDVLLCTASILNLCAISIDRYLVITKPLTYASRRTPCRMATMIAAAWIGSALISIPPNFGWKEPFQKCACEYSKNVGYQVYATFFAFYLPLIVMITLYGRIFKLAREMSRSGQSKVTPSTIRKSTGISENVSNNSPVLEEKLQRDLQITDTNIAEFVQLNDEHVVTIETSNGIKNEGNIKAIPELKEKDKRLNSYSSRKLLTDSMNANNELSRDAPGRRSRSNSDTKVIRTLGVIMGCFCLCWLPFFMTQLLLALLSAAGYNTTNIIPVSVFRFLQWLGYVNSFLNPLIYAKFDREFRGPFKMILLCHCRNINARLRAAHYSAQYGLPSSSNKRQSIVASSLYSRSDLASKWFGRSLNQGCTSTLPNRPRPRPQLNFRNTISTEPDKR

For `C[C@@H]1CC[C@@]2(OC1)O[C@H]1[C@@H](O)[C@H]3[C@@H]4CC[C@H]5C[C@@H](O[C@@H]6O[C@H](CO)[C@H](O[C@@H]7O[C@H](CO)C(O)[C@H](O[C@@H]8OC[C@@H](O)[C@H](O)[C@H]8O)[C@H]7O[C@@H]7O[C@H](CO)[C@H](O)[C@H](O[C@@H]8O[C@H](CO)[C@@H](O)[C@H](O)[C@H]8O)[C@H]7O)[C@H](O)[C@H]6O)[C@H](O)C[C@]5(C)[C@H]4CC[C@]3(C)[C@H]1[C@@H]2C` (some centres unmarked) [ST069321], the “(+) Sm.5HTR 5-HT response (% of DMSO)” value (Sm.5HTRL [1]) was 0.1068 % of DMSO and the “(-) Sm.5HTR Forskolin response (% of DMSO)” value [2] was 0.15 % of DMSO.

In the case of `O=C(C1CCCCC1)N1CC(=O)N2CCc3ccccc3[C@@H]2C1` [R-PZQ], the “type of activity at human 5-HT2B receptor” value (human 5-HT2B receptor) is given as “partial agonist”.

With `CN1C[C@H](C(=O)N[C@]2(C)O[C@@]3(O)[C@@H]4CCCN4C(=O)[C@H](Cc4ccccc4)N3C2=O)C=C2c3cccc4[nH]cc(c34)C[C@H]21` [ergotamine, Ergotamine] the “granuloma formation and fibrosis in liver sections” value [3] was “decreased granuloma formation and fibrosis”, the “hepatic microvesicular steatosis / microvascular damage” value ([3]; H and E staining) was “not observed” and the “effect on gene products associated with HSC activation” value (liver signaling pathways) was “down-regulated gene products associated with HSC activation”. For the same compound, the Emax (Sm.5HTRL [4]) was 95 ± 4%, the “effect on immature infection” value [5] was “did not resolve infections” and the “effect on movement of juvenile worms” value (immature S. mansoni) was “stimulated movement of juvenile worms”. The EC50 [6] was 97.8 ± 31.6 nM, the “morphology of eggs laid by treated worms” value [7] was “often small and deformed” and the “type of activity at schistosome 5-HTRs” value (Sm.5HTRL [1]) was “full agonists”. The Emax (Sj.5HTR) was 114 ± 3%, the “percentage of worms in the liver” value [8] was 75.1 ± 16.9% and the Emax (Sh.5HTR) was 96 ± 5%. For the same compound, the worm burden ([9]; 60 mg/kg twice daily 42–49 days p.i., control 28 ± 8) was 9 ± 6 worm pairs per mouse, the “reduction of worm burden” value ([9]; 60 mg/kg twice daily 42–49 days p.i., p<0.002) was ~ 65% and the “reduction of infection-promoted increase in spleen mass” value ([9]; 60 mg/kg twice daily 42–49 days p.i., relative to vehicle treated controls) was 55.8 ± 14.0%. For the same compound, the “reduction in intestinal egg burden” value ([9]; ergotamine 60 mg/kg twice daily or PZQ 50 mg/kg, 42–49 days p.i.) was 96.3 ± 1.2% and the “effect on hepatosplenomegaly” value ([9]; one week treatment starting at 42 days p.i.) was “prevented hepatosplenomegaly”.
